In ChEMBL document CHEMBL1143035, “Synthesis, antifungal and haemolytic activity of a series of bis(pyridinium)alkanes” (Bioorg Med Chem, 2007):
Values after ≈ are worked out from the molar mass of the structure shown. Structures can show the parent of a compound that is named as a salt.

What was measured:
[1] = Cytotoxicity against human erythrocytes assessed as hemolytic activity at 500 uM; assay type: cell-based; conditions: erythrocyte
Scedosporium boydii = assay: Antifungal activity against Scedosporium apiospermum 1-003-056; assay type: functional
Fusarium solani = assay: Antifungal activity against Fusarium solani 04-132-4207; assay type: functional
Aspergillus terreus = assay: Antifungal activity against Aspergillus terreus 03-232-378; assay type: functional
Aspergillus fumigatus = assay: Antifungal activity against Aspergillus fumigatus ATCC 204 305; assay type: functional
Lomentospora prolificans = assay: Antifungal activity against Scedosporium prolificans 1-003-040; assay type: functional
Aspergillus flavus = assay: Antifungal activity against Aspergillus flavus ATCC 204 304; assay type: functional
Cryptococcus neoformans = assay: Antifungal activity against Cryptococcus neoformans ATCC 90112; assay type: functional
Candida albicans = assay: Antifungal activity against Candida albicans ATCC 10231; assay type: functional
[2] = target: T1, Phospholipase B (Cryptococcus neoformans) (UniProt Q9P8P2); assay: Inhibition of phospholipase B activity of PLB1 in Cryptococcus neoformans var. grubii H99 assessed as loss of 1,2-di[1-14C]palmitoyl phosphatidylcholine at 2.5 uM
T1 sequence (whole entry): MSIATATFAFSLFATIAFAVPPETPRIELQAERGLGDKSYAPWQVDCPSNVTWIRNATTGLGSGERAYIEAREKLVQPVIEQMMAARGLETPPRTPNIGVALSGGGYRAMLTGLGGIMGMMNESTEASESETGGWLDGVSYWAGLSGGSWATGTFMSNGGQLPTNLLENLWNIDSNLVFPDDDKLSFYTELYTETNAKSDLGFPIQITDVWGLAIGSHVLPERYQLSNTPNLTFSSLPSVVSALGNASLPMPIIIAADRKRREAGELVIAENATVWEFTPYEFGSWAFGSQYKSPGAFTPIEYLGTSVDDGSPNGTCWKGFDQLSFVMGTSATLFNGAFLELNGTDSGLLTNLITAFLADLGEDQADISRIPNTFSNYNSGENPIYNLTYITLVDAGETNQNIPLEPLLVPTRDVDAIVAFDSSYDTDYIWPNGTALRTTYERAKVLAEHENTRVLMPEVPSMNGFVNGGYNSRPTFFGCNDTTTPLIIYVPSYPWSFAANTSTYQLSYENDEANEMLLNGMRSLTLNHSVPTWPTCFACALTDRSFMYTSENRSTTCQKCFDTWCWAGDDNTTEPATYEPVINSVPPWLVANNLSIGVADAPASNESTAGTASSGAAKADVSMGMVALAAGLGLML

[3] = Cytotoxicity against human erythrocytes assessed as hemolytic activity at 5 uM; assay type: cell-based, Erythrocyte; conditions: read-out: Activity
[4] = target: T1, Phospholipase B (Cryptococcus neoformans); assay: Inhibition of lysophospholipase transacylase activity of PLB1 in Cryptococcus neoformans var. grubii H99 assessed as rate of formation of 1-[14C]palmitoyl lyso phosphatidylcholine at 250 uM
[5] = target: T1, Phospholipase B (Cryptococcus neoformans); assay: Inhibition of phospholipase B activity of PLB1 in Cryptococcus neoformans var. grubii H99 assessed as loss of 1,2-di[1-14C]palmitoyl phosphatidylcholine at 25 uM
[6] = Cytotoxicity against human erythrocytes assessed as hemolytic activity at 50 uM; assay type: cell-based, Erythrocyte; conditions: read-out: Activity
[7] = target: T1, Phospholipase B (Cryptococcus neoformans); assay: Inhibition of lysophospholipase activity of PLB1 in Cryptococcus neoformans var. grubii H99 assessed as loss of 1-[14C]palmitoyl lyso phosphatidylcholine at 2.5 uM
[8] = target: T1, Phospholipase B (Cryptococcus neoformans); assay: Inhibition of lysophospholipase activity of PLB1 in Cryptococcus neoformans var. grubii H99 assessed as loss of 1-[14C]palmitoyl lyso phosphatidylcholine at 0.25 uM
[9] = target: T1, Phospholipase B (Cryptococcus neoformans); assay: Inhibition of lysophospholipase transacylase activity of PLB1 in Cryptococcus neoformans var. grubii H99 assessed as rate of formation of 1-[14C]palmitoyl lyso phosphatidylcholine at 0.25 uM
[10] = target: T1, Phospholipase B (Cryptococcus neoformans); assay: Inhibition of phospholipase B activity of PLB1 in Cryptococcus neoformans var. grubii H99 assessed as loss of 1,2-di[1-14C]palmitoyl phosphatidylcholine at 250 uM
[11] = target: T1, Phospholipase B (Cryptococcus neoformans); assay: Inhibition of lysophospholipase activity of PLB1 in Cryptococcus neoformans var. grubii H99 assessed as loss of 1-[14C]palmitoyl lyso phosphatidylcholine at 25 uM
[12] = target: T1, Phospholipase B (Cryptococcus neoformans); assay: Inhibition of phospholipase B activity of PLB1 in Cryptococcus neoformans var. grubii H99 assessed as loss of 1,2-di[1-14C]palmitoyl phosphatidylcholine at 0.25 uM
[13] = target: T1, Phospholipase B (Cryptococcus neoformans); assay: Inhibition of lysophospholipase transacylase activity of PLB1 in Cryptococcus neoformans var. grubii H99 assessed as rate of formation of 1-[14C]palmitoyl lyso phosphatidylcholine at 2.5 uM
[14] = target: T1, Phospholipase B (Cryptococcus neoformans); assay: Inhibition of lysophospholipase transacylase activity of PLB1 in Cryptococcus neoformans var. grubii H99 assessed as rate of formation of 1-[14C]palmitoyl lyso phosphatidylcholine at 25 uM
[15] = target: T1, Phospholipase B (Cryptococcus neoformans); assay: Inhibition of lysophospholipase activity of PLB1 in Cryptococcus neoformans var. grubii H99 assessed as loss of 1-[14C]palmitoyl lyso phosphatidylcholine at 250 uM

| MIC (Cryptococcus neoformans) [µM] | MIC (Candida albicans) [µM] | Structure (SMILES) | Activity [1] | also measured |
| --- | --- | --- | --- | --- |
| 2.8 | 1.4 | CNc1cc[n+](CCCCCCCCCCCC[n+]2ccc(NC)cc2)cc1.[Br-].[Br-] | Not Active | MIC (Scedosporium boydii): 2.8 µM; MIC (Fusarium solani): 44 µM; MIC (Aspergillus terreus): 11 µM; MIC (Aspergillus fumigatus): 44 µM; MIC (Lomentospora prolificans): 2.8 µM; MIC (Aspergillus flavus): 44 µM |
| 0.7 | 1.4 | CCCCCCCCN=c1ccn(CCCCCCCCCCn2ccc(=NCCCCCCCC)cc2)cc1 [OCTENIDINE HYDROCHLORIDE] |  | inhibition [2]: 50%; hemolysis at 5 µM [3]: 9%; inhibition [4]: 97%; inhibition [5]: 80%; hemolysis at 50 µM [6]: 43%; inhibition [7]: 16%; inhibition [8]: 0%; inhibition [9]: 0%; inhibition [10]: 100%; inhibition [11]: 46%; inhibition [12]: 0%; inhibition [13]: 12%; inhibition [14]: 43%; inhibition [15]: 97% |
| > 350 | 175 | [Br-].[Br-].c1cc[n+](CCCCCCCC[n+]2ccccc2)cc1 | Not Active |  |
| 88 | 44 | [Br-].[Br-].c1cc[n+](CCCCCCCCCCCC[n+]2ccccc2)cc1 | Not Active |  |
| 5.5 | 5.5 | Nc1cccc[n+]1CCCCCCCCCCCC[n+]1ccccc1N.[Br-].[Br-] | Not Active | inhibition [10]: 40% |
| 0.55 (≈ 0.508 µg/mL) | 0.55 (≈ 0.508 µg/mL) | C[C@@H]1[C@H](O)[C@@H](C)/C=C/C=C/C=C/C=C/C=C/C=C/C=C/[C@H](O[C@@H]2O[C@H](C)[C@@H](O)[C@H](N)[C@@H]2O)C[C@@H]2O[C@](O)(C[C@@H](O)C[C@@H](O)[C@H](O)CC[C@@H](O)C[C@@H](O)CC(=O)O[C@H]1C)C[C@H](O)[C@H]2C(=O)O [AMPHOTERICIN B] |  | MIC (Scedosporium boydii): 0.55 µM (≈ 0.508 µg/mL); MIC (Fusarium solani): 0.28 µM (≈ 0.259 µg/mL); MIC (Aspergillus terreus): 1.1 µM (≈ 1.02 µg/mL); MIC (Lomentospora prolificans): 4.4 µM (≈ 4.07 µg/mL); MIC (Aspergillus flavus): 0.55 µM (≈ 0.508 µg/mL) |
| > 350 | 175 | [Br-].[Br-].c1cc[n+](CCCCCC[n+]2ccccc2)cc1 | Not Active |  |
| 5.5 | 1.4 | Br.Br.N=c1ccn(CCCCCCCCCCCCn2ccc(=N)cc2)cc1 | Not Active | inhibition [10]: 40% |
| 88 | 88 | [Br-].[Br-].c1ccc2c(c1)ccc[n+]2CCCCCCCCCC[n+]1cccc2ccccc21 | Not Active |  |
| 1.4 | 1.4 | Nc1cc[n+](CCCCCCCCCCCCCCCC[n+]2ccc(N)cc2)cc1.[Br-].[Br-] | Not Active | inhibition [10]: 40% |
| 2.8 | 2.8 | CN(C)c1cc[n+](CCCCCCCCCCCC[n+]2ccc(N(C)C)cc2)cc1.[Br-].[Br-] | Not Active | inhibition [10]: 40% |
| 5.5 | 5.5 | Cc1cc(N)c2ccccc2[n+]1CCCCCCCC[n+]1c(C)cc(N)c2ccccc21.[Br-].[Br-] | Not Active |  |
| 11 | 5.5 | Cc1cc(N)c2ccccc2[n+]1CCCCCCCCCC[n+]1c(C)cc(N)c2ccccc21.[Cl-].[Cl-] [DEQUALINIUM CHLORIDE] | Not Active |  |

| Structure (SMILES) | MIC (Cryptococcus neoformans) [µM] | MIC (Candida albicans) [µM] | Activity [1] | also measured |
| --- | --- | --- | --- | --- |
| Br.Br.N=c1ccn(CCCCCCCCCCn2ccc(=N)cc2)cc1 | 22 | 2.8 | Not Active |  |
| [Cl-].[Cl-].c1ccc2c(c1)ccc[n+]2CCCCCCCCCCCC[n+]1cccc2ccccc21 | 11 | 22 | Not Active |  |
| [Br-].[Br-].c1cc[n+](CCCCCCCCCC[n+]2ccccc2)cc1 | 350 | 88 | Not Active |  |
| Cc1cc(N)c2ccccc2[n+]1CCCCCCCCCCCC[n+]1c(C)cc(N)c2ccccc21.[Cl-].[Cl-] | 88 | 22 | Not Active |  |
